Molecular target: T1, SmAbl2-TK (SmAbl2) (Schistosoma mansoni, UniProt D1H0Y8)
T1 construct: gene abl2; capped cRNA injected into Xenopus laevis stage VI oocytes
T1 sequence (D1H0Y8 283-538 limits assumed): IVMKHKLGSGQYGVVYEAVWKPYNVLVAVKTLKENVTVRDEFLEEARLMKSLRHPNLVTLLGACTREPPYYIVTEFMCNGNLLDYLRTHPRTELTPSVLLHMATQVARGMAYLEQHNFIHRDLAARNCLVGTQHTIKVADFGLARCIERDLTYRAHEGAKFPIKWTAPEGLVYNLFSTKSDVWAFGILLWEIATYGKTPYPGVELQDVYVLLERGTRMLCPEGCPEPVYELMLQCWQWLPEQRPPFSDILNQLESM
Experiment: germinal vesicle breakdown (GVBD) assay, cRNA-injected Xenopus oocytes
Format: cell-based
Details: remaining GVBD-inducing activity; ND96, 19 °C, 18 h after injection, pools of 10 oocytes

CO[C@H]1[C@@H](OC)C[C@H](C)[C@@H](OC)C2=CC(=O)C=C(NC(=O)/C(C)=C/C=C\[C@H](OC)[C@@H](OC(N)=O)/C(C)=C/[C@@H]1C)C2=O [Herbimycin A]
% GVBD at 10 μM: 90%

Reference: paper PMC4055459, “Imatinib Treatment Causes Substantial Transcriptional Changes in Adult Schistosoma mansoni In Vitro Exhibiting Pleiotropic Effects” (PLoS Neglected Tropical Diseases, 2014)
